This note sets out measurements from US11111245B2, “Derivatives of N-cycloalkyl/heterocycloalkyl-4-(imidazo[1,2-a]pyridine)pyrimidin-2-amine as therapeutic agents” (Aucentra Therapeutics Pty Ltd, priority 2017, dated 2021).

Structures are written as SMILES.

One assay deals with CDK4/D1 (Homo sapiens, UniProt P11802). As to the kind of experiment: ADP Glo Kinase assay CDK4/D1. In kind it is biochemical. To be noted: CDK4D1; compound at 10 μM; read-out: residual activity (%) at 10 μM CDK4D1. As to the method:
(§1) Eurofins Pharma Discovery or Reaction Biology Corporation Kinase Profiler services were used to measure inhibition of CDKs and other kinases by radiometric assay. Inhibition of CDK4/D1, CDK6/D3 and CDK9/T1 were also determined in-house using ADP Glo Kinase assays (Promega Corporation, Madison, USA). Briefly, the kinase reaction for CDK4/D1 and CDK6/D3 was performed with kinase reaction buffer ([…] Tris base pH 7.5, 20 mM MgCl2, 0.4 mM DTT), 0.1 mg/ml BSA and RB-CTF substrate (retinoblastoma protein 1 C-terminal fraction). For CDK9/CyclinT1, the kinase reaction was performed with standard assay buffer and Kinase Dilution Buffer and RBER-IRStide substrate. Serial dilutions of 1:3 were prepared for test compounds for 10 concentrations (from 10 μM to 0.5 nM). The kinase reactions were started by addition of ATP, incubated for 40 min at 37° C. and then stopped by adding 10 μL of ADP Glo reagent. After incubation at room temperature in the dark for 40 min, 20 μL of kinase detection reagent was added per well and incubated for 40 min. Luminescence was measured using an EnVision Multilabel plate reader (PerkinElmer, Buckinghamshire, UK). Positive and negative controls were performed in the presence and absence of CDK kinases, respectively. Half-maximal inhibition (IC50) values were calculated using a 4-parameter logistic non-linear regression model with Graphpad prism (Version 6.0). Apparent inhibition constants (Ki) values were calculated from Km (ATP) and IC50 values for the respective kinases.
On the technique in general: In ADP-Glo the light output rises with the ADP produced.

In the next assay the target is CDK9/T1 (Homo sapiens, UniProt P50750). Put plainly: ADP Glo Kinase assay CDK9/T1. To be noted: CDK9T1; read-out: CDK inhibition, Ki (μM) CDK9T1. In kind it is biochemical. As to the method: as §1
Chain of CDK9/T1 (P50750 whole entry): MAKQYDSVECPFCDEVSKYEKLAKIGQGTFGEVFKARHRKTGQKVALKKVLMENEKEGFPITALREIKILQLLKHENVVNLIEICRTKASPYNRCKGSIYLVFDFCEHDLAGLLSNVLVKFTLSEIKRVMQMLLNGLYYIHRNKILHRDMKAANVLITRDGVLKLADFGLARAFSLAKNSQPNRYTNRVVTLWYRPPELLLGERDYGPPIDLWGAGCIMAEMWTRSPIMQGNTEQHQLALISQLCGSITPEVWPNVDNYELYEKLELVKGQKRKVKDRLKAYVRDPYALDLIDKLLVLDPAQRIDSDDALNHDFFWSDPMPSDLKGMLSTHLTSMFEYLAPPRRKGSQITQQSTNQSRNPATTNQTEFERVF
Chain of CDK9/T1 (O60563 whole entry partner): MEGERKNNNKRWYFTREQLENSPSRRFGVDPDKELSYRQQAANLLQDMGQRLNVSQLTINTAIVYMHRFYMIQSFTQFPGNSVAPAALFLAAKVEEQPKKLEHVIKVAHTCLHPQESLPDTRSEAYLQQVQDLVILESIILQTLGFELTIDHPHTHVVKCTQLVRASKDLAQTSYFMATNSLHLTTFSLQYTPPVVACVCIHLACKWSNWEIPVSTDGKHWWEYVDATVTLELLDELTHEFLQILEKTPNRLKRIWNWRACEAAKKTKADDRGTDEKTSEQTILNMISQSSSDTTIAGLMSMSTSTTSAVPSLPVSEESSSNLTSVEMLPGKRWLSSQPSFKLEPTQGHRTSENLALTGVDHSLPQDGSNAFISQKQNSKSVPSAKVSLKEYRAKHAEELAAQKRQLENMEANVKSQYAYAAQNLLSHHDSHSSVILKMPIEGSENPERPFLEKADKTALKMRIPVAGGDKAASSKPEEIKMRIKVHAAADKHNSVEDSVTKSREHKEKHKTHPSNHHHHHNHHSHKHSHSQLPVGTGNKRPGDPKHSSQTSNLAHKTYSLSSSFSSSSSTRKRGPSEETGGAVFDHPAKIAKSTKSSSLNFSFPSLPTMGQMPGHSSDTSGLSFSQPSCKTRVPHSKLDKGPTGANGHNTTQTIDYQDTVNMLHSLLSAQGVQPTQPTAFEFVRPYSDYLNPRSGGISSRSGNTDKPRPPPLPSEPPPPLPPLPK
The target in assay [1] is T1, CDKs and other kinases (Homo sapiens, UniProt P06493).
T1 construct: other: CDK1B; residual activity (%) at 10 μM CDK1B; compound at 10 μM
T1 sequence (P06493 whole entry): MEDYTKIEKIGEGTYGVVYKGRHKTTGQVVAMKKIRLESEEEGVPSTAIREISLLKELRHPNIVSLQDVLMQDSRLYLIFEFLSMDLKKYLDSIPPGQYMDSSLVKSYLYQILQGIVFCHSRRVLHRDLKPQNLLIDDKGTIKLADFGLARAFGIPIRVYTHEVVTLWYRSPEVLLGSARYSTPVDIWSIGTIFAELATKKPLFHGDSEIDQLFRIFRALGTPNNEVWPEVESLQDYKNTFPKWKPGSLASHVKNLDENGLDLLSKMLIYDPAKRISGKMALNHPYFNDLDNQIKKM
Put plainly: Radiometric kinase assay (Eurofins Pharma Discovery or Reaction Biology Corporation Kinase Profiler). The assay is classed as biochemical. To be noted: CDK1B; for remaining activity at 10 µM: compound at 10 μM, read-out: residual activity (%) at 10 μM CDK1B; for Ki: read-out: CDK inhibition, Ki (μM) CDK1B. The protocol: as §1

Assay [2] deals with T2, CDKs and other kinases (Homo sapiens, UniProt P24941).
T2 construct: other: CDK2A; residual activity (%) at 10 μM CDK2A; compound at 10 μM
The assay is described as above. To be noted: CDK2A; for remaining activity at 10 µM: compound at 10 μM, read-out: residual activity (%) at 10 μM CDK2A. The assay is classed as biochemical. As to the method:
as §1

In assay [3] the target is T3, CDKs and other kinases (Homo sapiens, UniProt P50613).
T3 construct: other: CDK7H; residual activity (%) at 10 μM CDK7H; compound at 10 μM
T3 sequence (P50613 whole entry): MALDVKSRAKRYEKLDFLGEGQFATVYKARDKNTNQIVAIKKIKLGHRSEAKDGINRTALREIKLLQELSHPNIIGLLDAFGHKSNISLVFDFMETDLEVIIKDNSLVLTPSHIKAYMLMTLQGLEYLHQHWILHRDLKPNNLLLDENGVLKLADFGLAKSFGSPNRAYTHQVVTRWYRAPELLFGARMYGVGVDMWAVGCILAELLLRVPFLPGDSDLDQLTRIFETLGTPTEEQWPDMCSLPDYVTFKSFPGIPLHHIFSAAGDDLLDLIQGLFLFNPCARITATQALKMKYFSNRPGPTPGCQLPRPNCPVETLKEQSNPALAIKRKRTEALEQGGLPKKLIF
The assay is described as above. In kind it is biochemical. To be noted: CDK7H; for remaining activity at 10 µM: compound at 10 μM, read-out: residual activity (%) at 10 μM CDK7H; for Ki: read-out: CDK inhibition, Ki (μM) CDK7H. As to the method:
as §1

For another assay, the system named is leukemia cell lines. As to the kind of experiment: Resazurin cell viability assay on leukemia cell lines (72 h growth inhibition, GI50). The assay is classed as cell-based. To be noted: Homo sapiens, MV4-11 cells. As to the method:
Compounds from Example 1 were subjected to a standard MTT (3-(4,5-dimethylthiazol-2-yl)-2,5-diphenyltetrazolium bromide) and resazurin assays on solid tumour cell lines and leukemia cell lines, respectively, as previously reported (Wang S et al., J Med Chem 47:1662-1675, 2004 and Diab S. et al. CheMedChem 9:962-972, 2014). Compound concentrations required to inhibit 50% of cell growth (GI50) were calculated using non-linear regression analysis.

Chain of CDK4/D1 (P11802 whole entry): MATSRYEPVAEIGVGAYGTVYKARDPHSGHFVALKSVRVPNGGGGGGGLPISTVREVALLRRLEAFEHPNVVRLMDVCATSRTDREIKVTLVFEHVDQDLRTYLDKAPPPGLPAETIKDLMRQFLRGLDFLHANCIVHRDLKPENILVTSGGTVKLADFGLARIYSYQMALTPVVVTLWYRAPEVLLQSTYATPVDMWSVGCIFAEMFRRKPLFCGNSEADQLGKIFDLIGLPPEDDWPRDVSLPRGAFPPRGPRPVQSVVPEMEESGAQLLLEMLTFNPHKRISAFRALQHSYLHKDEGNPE
Chain of CDK4/D1 (P24385 whole entry partner): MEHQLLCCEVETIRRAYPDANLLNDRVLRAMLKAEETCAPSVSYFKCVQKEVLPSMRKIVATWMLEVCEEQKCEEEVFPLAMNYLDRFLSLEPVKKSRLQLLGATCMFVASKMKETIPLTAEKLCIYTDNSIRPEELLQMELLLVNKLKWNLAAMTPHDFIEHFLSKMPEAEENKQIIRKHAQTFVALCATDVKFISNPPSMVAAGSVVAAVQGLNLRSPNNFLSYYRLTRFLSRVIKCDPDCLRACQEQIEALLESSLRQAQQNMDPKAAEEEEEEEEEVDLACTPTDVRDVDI

Broadly, the Ki is a measure of affinity in units of concentration, obtained from inhibition or displacement. A word on the GI50: it is the concentration at which growth is held to half of that of the control. Low values mean more potent growth inhibition, high ones less potent growth inhibition. Consider `Cc1cnc(N[C@H]2CC[C@@H](N3CCC3)CC2)nc1-c1cnc2ccc(-c3ccccc3)cn12` [Compound 136, N-((1s,4s)-4-(Azetidin-1-yl)cyclohexyl)-5-methyl-4-(6-phenylimidazo[1,2-a]pyridin-3-yl)pyrimidin-2-amine], for which the remaining activity at 10 µM at CDK4/D1 was 48%; at CDKs and other kinases [1], 22%; on CDKs and other kinases [2] it was 59%; at CDKs and other kinases [3] it was 36%. In addition, on CDK9/T1, the inhibitory constant (Ki) was determined as 2.77 µM. This compound yielded a GI50 with leukemia cell lines of 0.297 ± 0.001 µM.

As for `Fc1cnc(N[C@H]2CC[C@H](N3CCCC3)CC2)nc1-c1cnc2ccc(-c3ccccc3)cn12` [Compound 137, 5-Fluoro-4-(6-phenylimidazo[1,2-a]pyridin-3-yl)-N-((1r,4r)-4-(pyrrolidin-1-yl)cyclohexyl)pyrimidin-2-amine], the remaining activity at 10 µM worked out at 7% at CDK4/D1; 3% at CDKs and other kinases [1]; 0% on CDKs and other kinases [2]. In addition, the Ki on CDK9/T1 turned out to be 0.003 µM; on CDKs and other kinases [3], 0.04 µM. This compound registered a concentration for 50% growth inhibition (GI50) with leukemia cell lines of less than 0.01 µM.

With `Fc1cnc(N[C@H]2CC[C@H](N3CCC3)CC2)nc1-c1cnc2ccc(-c3ccccc3)cn12` [Compound 138, N-((1r,4r)-4-(Azetidin-1-yl)cyclohexyl)-5-fluoro-4-(6-phenylimidazo[1,2-a]pyridin-3-yl)pyrimidin-2-amine], the remaining activity at 10 µM at CDK4/D1 worked out at 6%; at CDKs and other kinases [3], 0%. The Ki stood at 0.006 µM on CDK9/T1; 0.076 µM at CDKs and other kinases [1]; 0.111 µM at CDKs and other kinases [2] (read-out: CDK inhibition, Ki (μM) CDK2A). The same compound showed a concentration for 50% growth inhibition (GI50) in the assay with leukemia cell lines of less than 0.001 µM.

With `Cc1cnc(N[C@H]2CC[C@H](N3CCCC3)CC2)nc1-c1cnc2ccc(-c3ccccc3)cn12` [Compound 140, 5-Methyl-4-(6-phenylimidazo[1,2-a]pyridin-3-yl)-N-((1r,4r)-4-(pyrrolidin-1-yl)cyclohexyl)pyrimidin-2-amine], the remaining activity at 10 µM at CDK4/D1 stood at 65%; on CDKs and other kinases [1] it was 39%; on CDKs and other kinases [2] it was 61%. The Ki was 0.53 µM at CDK9/T1; 0.597 µM on CDKs and other kinases [3]. The same compound had a GI50 in the assay with leukemia cell lines of 0.242 ± 0.132 µM.

Consider `Cc1cnc(N[C@H]2CC[C@H](N3CCCC3)CC2)nc1-c1cnc2ccc(Nc3cncnc3)cn12` [Compound 142, 3-(5-Methyl-2-(((1r,4r)-4-(pyrrolidin-1-yl)cyclohexyl)amino)pyrimidin-4-yl)-N-(pyrimidin-5-yl)imidazo [1,2-a]pyridin-6-amine], for which the remaining activity at 10 µM was 8% at CDK4/D1; 23% at CDKs and other kinases [1]; 15% on CDKs and other kinases [2]; 39% at CDKs and other kinases [3]. Also, the Ki at CDK9/T1 stood at 0.025 µM. In the assay on leukemia cell lines, growth was halved (GI50) at 0.064 ± 0.017 µM.

Regarding `Fc1cnc(NC2CCNCC2)nc1-c1cnc2ccc(-c3ccccc3)cn12` [Compound 143, 5-Fluoro-4-(6-phenylimidazo[1,2-a]pyridin-3-yl)-N-(piperidin-4-yl)pyrimidin-2-amine], the remaining activity at 10 µM at CDK4/D1 was determined as 4%; on CDKs and other kinases [1], 3%; on CDKs and other kinases [2], 4%. In addition, the inhibition constant Ki is 0.108 µM at CDK9/T1; 0.088 µM on CDKs and other kinases [3]. This compound also gave a GI50 in the assay on leukemia cell lines of 0.003 ± 0.001 µM.

Consider `CN1CCC(Nc2ncc(F)c(-c3cnc4ccc(-c5ccccc5)cn34)n2)CC1` [Compound 144, 5-Fluoro-N-(1-Methylpiperidin-4-yl)-4-(6-phenylimidazo [1,2-a]pyridin-3-yl)pyrimidin-2-amine], for which the remaining activity at 10 µM on CDK4/D1 was determined as 20%; on CDKs and other kinases [2], 8%. Also, the Ki at CDK9/T1 is 0.138 µM; on CDKs and other kinases [1] it was 0.047 µM; at CDKs and other kinases [3], 0.072 µM. Besides, it took 0.005 ± 0.003 µM to inhibit growth in the assay on leukemia cell lines by half (GI50).
